Measured values published in patent US11000033B2, “Ketone or oxime compound, and herbicide” (NISSAN CHEMICAL CORPORATION, priority 2014, dated 2021).

Tests used:
Type in all cases: in vivo
[1] = tested on: beet; experiment: Test Example 5: effect on crop by foliage application, plastic box (symbol f); conditions: 320 g/ha, 3 weeks after application
Procedure, shortened: (§1)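 Sterilized diluvial soil, plastic box (21 × 13 × 7 cm); spot sowing, ~1.5 cm soil cover; greenhouse 25–30° C.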

[2] = tested on: soybean; experiment: Test Example 4: effect on crop by soil treatment (symbol d); conditions: application herbicide amount 320 g/ha
Procedure, shortened: (§2)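 Crop seed is sown in spots together with several weed species in a box of sterilized diluvial soil. It is covered by about 1.5 cm of soil and kept in a greenhouse held between 25° C. and 30° C.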

[3] = tested on: Alopecurus myosuroides; experiment: Test Example 5: herbicidal effect by foliage application, plastic box (symbol J); conditions: 320 g/ha, 3 weeks after application
Procedure, shortened: (§3)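 Greenhouse foliar test: seedlings at 14 days, grown 25° C. to 30° C. in sterilized diluvial soil; compound applied as an aqueous dilution of an emulsion; response read 3 weeks after spraying.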

[4] = tested on: Veronica persica; experiment: Test Example 4: herbicidal effect by soil treatment (symbol R); conditions: application herbicide amount 320 g/ha
Procedure, shortened: (§4)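 Seeds were sown in sterilized diluvial soil, covered with about 1.5 cm of soil, and the soil surface was sprayed with a water-diluted emulsion of the compound at a predetermined rate. Plants grew in a greenhouse at 25° C. to 30° C.; effects were scored visually 3 weeks after application.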

[5] = tested on: Echinochloa crus-galli var. crus-galli; experiment: Test Example 3: herbicidal effect by foliage application, Wagner pot (symbol H); conditions: application herbicide amount 320 g/ha
Procedure, shortened: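 Foliar spray of water-diluted emulsion formulation at a predetermined herbicide amount onto 14-day-old plants in flooded alluvial soil (water depth 0.1–0.5 cm), greenhouse 25–30 °C; rice sown alongside. Scored 3 wk post-application on set criteria.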

[6] = tested on: Echinochloa oryzacola Vasing.; experiment: Test Example 1: herbicidal activity, application before weed generation in submerged conditions (symbol A); conditions: application herbicide amount 320 g/ha
Procedure, shortened: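 In a flooded pot test with alluvial soil, the emulsion-formulated compound was diluted with water to a predetermined amount and applied to the floodwater immediately on the sowing day. Pots were held in a greenhouse at 25–30 °C for 3 weeks before each weed was rated.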

[7] = tested on: transplanted rice plant; experiment: Test Example 1: effect on crop, application before weed generation in submerged conditions (symbol a); conditions: application herbicide amount 320 g/ha
Procedure, shortened: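 Rice at 2.5 leaf stage transplanted into submerged soil (4 cm depth) sown with three weed species; herbicide applied before weed emergence.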

[8] = tested on: Abutilon theophrasti; experiment: Test Example 5: herbicidal effect by foliage application, plastic box (symbol M); conditions: 320 g/ha, 3 weeks after application
Procedure, shortened: as §3

[9] = tested on: wheat; experiment: Test Example 5: effect on crop by foliage application, plastic box (symbol e); conditions: 320 g/ha, 3 weeks after application
Procedure, shortened: as §1

[10] = tested on: Stellaria media; experiment: Test Example 4: herbicidal effect by soil treatment (symbol P); conditions: application herbicide amount 320 g/ha
Procedure, shortened: as §4

[11] = tested on: soybean; experiment: Test Example 5: effect on crop by foliage application, plastic box (symbol d); conditions: 320 g/ha, 3 weeks after application
Procedure, shortened: as §1

[12] = tested on: corn; experiment: Test Example 4: effect on crop by soil treatment (symbol c); conditions: application herbicide amount 320 g/ha
Procedure, shortened: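 Soil-treatment setup: crop and weed seeds were spot-sown into sterilized diluvial soil, then buried beneath approximately 1.5 cm of it, and the boxes were housed in a 25–30° C. greenhouse.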

[13] = tested on: beet; experiment: Test Example 4: effect on crop by soil treatment (symbol f); conditions: application herbicide amount 320 g/ha
Procedure, shortened: as §2

[14] = tested on: rice plant; experiment: Test Example 5: effect on crop by foliage application, plastic box (symbol b); conditions: 320 g/ha, 3 weeks after application
Procedure, shortened: as §1

[15] = tested on: Galium spurium; experiment: Test Example 5: herbicidal effect by foliage application, plastic box (symbol Q); conditions: 320 g/ha, 3 weeks after application
Procedure, shortened: as §3

Row | SMILES | f: beet, effect on crop (criteria of Test Example 1) [1] | Effect on crop grade, d: soybean [2] | J: Alopecurus myosuroides, herbicidal effect (criteria of Test Example 1) [3] | Herbicidal effect grade, R: Veronica persica [4] | herbicidal effect on H (Echinochloa crus-galli var. crus-galli), grade 0-5 [5] | Herbicidal effect grade, A: Echinochloa oryzacola Vasing. [6] | Effect grade on crop, a: transplanted rice plant [7] | M: Abutilon theophrasti, herbicidal effect (criteria of Test Example 1) [8] | e: wheat, effect on crop (criteria of Test Example 1) [9] | Herbicidal effect grade, P: Stellaria media [10] | d: soybean, effect on crop (criteria of Test Example 1) [11] | Effect on crop grade, c: corn [12] | Effect on crop grade, f: beet [13] | b: directly sowed rice plant, effect on crop (criteria of Test Example 1) [14] | Q: Galium spurium, herbicidal effect (criteria of Test Example 1) [15] | d: soybean, effect on crop grade [2] | R: Veronica persica, herbicidal effect grade [4] | P: Stellaria media, herbicidal effect grade [10] | c: corn, effect on crop grade [12] | f: beet, effect on crop grade [13]
1 | CON=C(C)CC1CC(O)=C(c2c(F)cc(C)cc2OC)C1=O (stereo not drawn) [6-108] | 0 (Herbicidal ratio of 5% or lower (almost no effect)) | 0 (Herbicidal ratio of 5% or lower (almost no effect)) | 5 (Herbicidal ratio of 90% or more (almost completely withered)) | 3 (Herbicidal ratio of 40% or higher and lower than 70%) | 5 (Herbicidal ratio of 90% or more (almost completely withered)) | 4 (Herbicidal ratio of 70% or higher and lower than 90%) | 5 (Herbicidal ratio of 90% or more (almost completely withered)) | 5 (Herbicidal ratio of 90% or more (almost completely withered)) | 3 (Herbicidal ratio of 40% or higher and lower than 70%) | 3 (Herbicidal ratio of 40% or higher and lower than 70%) | 3 (Herbicidal ratio of 40% or higher and lower than 70%) | 1 (Herbicidal ratio of 5% or higher and lower than 20%) | 0 (Herbicidal ratio of 5% or lower (almost no effect)) | 5 (Herbicidal ratio of 90% or more (almost completely withered)) | 3 (Herbicidal ratio of 40% or higher and lower than 70%) | – | – | – | – | –
2 | CON=C(C)CC1CC(O)=C(c2c(C)cc(-c3ncccn3)cc2C)C1=O (mixture of isomers) [6-057] | 0 (Herbicidal ratio of 5% or lower (almost no effect)) | – | 5 (Herbicidal ratio of 90% or more (almost completely withered)) | – | 5 (Herbicidal ratio of 90% or more (almost completely withered)) | 3 (Herbicidal ratio of 40% or higher and lower than 70%) | 5 (Herbicidal ratio of 90% or more (almost completely withered)) | 1 (Herbicidal ratio of 5% or higher and lower than 20%) | 5 (Herbicidal ratio of 90% or more (almost completely withered)) | – | 3 (Herbicidal ratio of 40% or higher and lower than 70%) | – | – | 5 (Herbicidal ratio of 90% or more (almost completely withered)) | 3 (Herbicidal ratio of 40% or higher and lower than 70%) | 0 (Herbicidal ratio of 5% or lower (almost no effect)) | 0 (Herbicidal ratio of 5% or lower (almost no effect)) | 0 (Herbicidal ratio of 5% or lower (almost no effect)) | 1 (Herbicidal ratio of 5% or higher and lower than 20%) | 0 (Herbicidal ratio of 5% or lower (almost no effect))
3 | CC(=O)CC1CC(O)=C(c2c(C)cc(C)cc2Br)C1=O (stereo not drawn) [7-011] | 0 (Herbicidal ratio of 5% or lower (almost no effect)) | 0 (Herbicidal ratio of 5% or lower (almost no effect)) | 4 (Herbicidal ratio of 70% or higher and lower than 90%) | 0 (Herbicidal ratio of 5% or lower (almost no effect)) | 5 (Herbicidal ratio of 90% or more (almost completely withered)) | 2 (Herbicidal ratio of 20% or higher and lower than 40%) | 1 (Herbicidal ratio of 5% or higher and lower than 20%) | 4 (Herbicidal ratio of 70% or higher and lower than 90%) | 0 (Herbicidal ratio of 5% or lower (almost no effect)) | 0 (Herbicidal ratio of 5% or lower (almost no effect)) | 0 (Herbicidal ratio of 5% or lower (almost no effect)) | 3 (Herbicidal ratio of 40% or higher and lower than 70%) | 0 (Herbicidal ratio of 5% or lower (almost no effect)) | 5 (Herbicidal ratio of 90% or more (almost completely withered)) | 0 (Herbicidal ratio of 5% or lower (almost no effect)) | – | – | – | – | –
4 | CON=C(C)CC1CC(O)=C(c2c(F)cc(-c3ccccc3)cc2OC)C1=O (stereo not drawn) [6-107] | 2 (Herbicidal ratio of 20% or higher and lower than 40%) | 0 (Herbicidal ratio of 5% or lower (almost no effect)) | 5 (Herbicidal ratio of 90% or more (almost completely withered)) | 4 (Herbicidal ratio of 70% or higher and lower than 90%) | 5 (Herbicidal ratio of 90% or more (almost completely withered)) | 5 (Herbicidal ratio of 90% or more (almost completely withered)) | 5 (Herbicidal ratio of 90% or more (almost completely withered)) | 3 (Herbicidal ratio of 40% or higher and lower than 70%) | 5 (Herbicidal ratio of 90% or more (almost completely withered)) | 2 (Herbicidal ratio of 20% or higher and lower than 40%) | 1 (Herbicidal ratio of 5% or higher and lower than 20%) | 0 (Herbicidal ratio of 5% or lower (almost no effect)) | 1 (Herbicidal ratio of 5% or higher and lower than 20%) | 5 (Herbicidal ratio of 90% or more (almost completely withered)) | 5 (Herbicidal ratio of 90% or more (almost completely withered)) | – | – | – | – | –
5 | CON=C(C)CC1CC(O)=C(c2c(C)cc(-c3ccc(Cl)cc3F)cc2C)C1=O (stereo not drawn) [6-084] | 0 (Herbicidal ratio of 5% or lower (almost no effect)) | – | 5 (Herbicidal ratio of 90% or more (almost completely withered)) | – | 5 (Herbicidal ratio of 90% or more (almost completely withered)) | 5 (Herbicidal ratio of 90% or more (almost completely withered)) | 5 (Herbicidal ratio of 90% or more (almost completely withered)) | 3 (Herbicidal ratio of 40% or higher and lower than 70%) | 4 (Herbicidal ratio of 70% or higher and lower than 90%) | – | 5 (Herbicidal ratio of 90% or more (almost completely withered)) | – | – | 5 (Herbicidal ratio of 90% or more (almost completely withered)) | 3 (Herbicidal ratio of 40% or higher and lower than 70%) | 5 (Herbicidal ratio of 90% or more (almost completely withered)) | 4 (Herbicidal ratio of 70% or higher and lower than 90%) | 3 (Herbicidal ratio of 40% or higher and lower than 70%) | 0 (Herbicidal ratio of 5% or lower (almost no effect)) | 0 (Herbicidal ratio of 5% or lower (almost no effect))
